We go through one substance from patent US9551711B2, “Compositions and methods for detecting nitration of PKG-1α and methods of use thereof” (Augusta University Research Institute, Inc., priority 2013, dated 2017).

The target of this experiment is T1, PKG-1α (Homo sapiens, UniProt Q13976).
T1 sequence (Q13976 2-671): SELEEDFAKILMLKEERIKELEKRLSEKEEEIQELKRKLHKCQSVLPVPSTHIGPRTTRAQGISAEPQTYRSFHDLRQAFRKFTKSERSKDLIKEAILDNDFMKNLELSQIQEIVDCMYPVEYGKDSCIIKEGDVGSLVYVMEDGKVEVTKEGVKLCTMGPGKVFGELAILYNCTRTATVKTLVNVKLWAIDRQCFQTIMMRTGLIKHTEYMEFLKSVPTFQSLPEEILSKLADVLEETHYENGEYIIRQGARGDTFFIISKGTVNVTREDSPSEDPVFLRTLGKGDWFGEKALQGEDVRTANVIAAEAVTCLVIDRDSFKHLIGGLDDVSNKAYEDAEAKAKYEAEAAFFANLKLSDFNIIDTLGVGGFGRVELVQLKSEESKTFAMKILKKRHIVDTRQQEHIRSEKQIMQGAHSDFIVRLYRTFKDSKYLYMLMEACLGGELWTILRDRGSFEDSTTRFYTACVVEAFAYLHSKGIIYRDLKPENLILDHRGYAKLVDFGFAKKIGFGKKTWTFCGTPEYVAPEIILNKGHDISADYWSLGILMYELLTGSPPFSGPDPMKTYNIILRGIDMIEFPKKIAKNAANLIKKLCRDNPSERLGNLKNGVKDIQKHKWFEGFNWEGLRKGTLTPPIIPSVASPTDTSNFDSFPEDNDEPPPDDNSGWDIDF
In words: PKG catalytic activity, Michaelis-Menten kinetics for cGMP. The experiment is classed as biochemical. Set-up: an expression plasmid containing a full length WT-PKG-1α cDNA; made in house; host or cells: HEK-293T; the results paragraph b304 says PASMC. Here is the method:
Total PKG activity was determined using a non-radioactive immunoassay in cell lysates, according to the manufacturer's directions. Briefly, protein samples were diluted in kinase reaction buffer containing Mg^2+ and ATP (125 μM) in the presence or absence of 8-Br cGMP (10 μM) and incubated in a 96 well plate pre-coated with a PKG substrate containing threonine residues phosphorylated by PKG.
After incubation for 30 min at 30° C. to allow the phosphorylation of the bound substrate, an HRP conjugated anti-phosphothreonine specific antibody was added to convert a chromogenic substrate to a colorimetric substrate that was subsequently read spectrophotometrically at 450 nm. The change in absorbance reflected the relative activity of PKG in the sample. The results were reported as pmols of phosphate incorporated into the GST-G substrate fusion protein by active PKG in the sample in the presence or absence of cGMP (10 μM) per minute at 30° C. per μg of protein (pmol/min/μg). […] The kinetic constants were determined using nonlinear regression (curve fit) analysis (GraphPad Prism Software Inc.).
To determine the Michaelis-Menten constant (Km) for cGMP, the kinase assay was performed, as mentioned above; however, the cGMP concentration was titrated from 0-10 μM, while the ATP concentration remained constant at 125 μM.

Regarding “3-morpholinosydnonimine N-ethylcarbamide [SIN-1]”, under “WT PKG-1α after SIN-1 challenge, ATP 125 μM, cGMP 0-10 μM”, the “Vmax of the reaction” value was 0.28 pmol/min/µg. For the setting “WT-PKG-1α upon SIN-1 treatment, read-out: Michaelis-Menten constant (Km) for cGMP”, the Km came to 8.91 nM.

In general, Km refers to the concentration of substrate that gives half-maximal velocity.
